The test system of one test is CFPAC-1. As to the kind of experiment: CellTiter-Glo cell viability, tumor cell line CFPAC-1. The test is classed as cell-based. As to conditions: CFPAC-1, 72 h; human pancreatic cancer cell; 3 days of culture; read-out: inhibitory effect on CFPAC-1 (IC50). An outline of the steps:
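CFPAC-1 cells in IMDM with 10% FBS were exposed to serially diluted compounds for 3 days. Viability determined from intracellular ATP by CellTiter-Glo luminescence; IC50 derived from the concentration response.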

The test system of a further test is G-401. As to the kind of experiment: CellTiter-Glo cell viability, tumor cell line G-401. As to conditions: G-401, 72 h; human renal carcinoma Wilms cell; 3 days of culture; read-out: inhibitory effect on G-401 (IC50). The test is classed as cell-based. An outline of the steps:
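G-401 cells were grown in McCoy's 5a medium with 10% FBS and P/S and exposed to serially diluted compounds for 3 days. Viability was read as intracellular ATP by CellTiter-Glo, and IC50 was reported as the 50% inhibiting concentration.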
For orientation: In ATP-based viability assays light output follows the ATP content of the culture.

In a further test the test system is GB-1. In words: CellTiter-Glo cell viability, tumor cell line GB-1. It counts as cell-based. As to conditions: GB-1, 72 h; human brain glioblastoma cell; 3 days of culture; read-out: inhibitory effect on GB-1 (IC50). The method, boiled down: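 GB-1 brain tumor cells grown in DMEM with 10% FBS were exposed to serially diluted compounds for 3 days. Viability was read as intracellular ATP by CellTiter-Glo luminescence, and IC50 was taken as the concentration giving 50% inhibition.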

The next test deals with ov-NNMT NCI-H82 cell. As to the kind of experiment: CellTiter-Glo cell viability, ov-NNMT NCI-H82 cell (NNMT overexpressed). The test is classed as cell-based, human. As to conditions: Homo sapiens, NCI-H82, NCI-H82 overexpressing NNMT protein, intracellular ATP, read-out: inhibitory effect on OV-NNMT NCI-H82 (IC50).
In a further test the test system is NCI-H82. In words: CellTiter-Glo cell viability, tumor cell line NCI-H82. It counts as cell-based. As to conditions: NCI-H82, 72 h; human small cell lung cancer cell; 3 days of culture; read-out: inhibitory effect on NCI-H82 (IC50). An outline of the steps: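 NCI-H82 cells in RPMI1640 with 10% FBS treated with serially diluted compounds after passage and cultured 3 days. Viability by CellTiter-Glo luminescence of intracellular ATP; IC50 as 50% inhibiting concentration.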

Another test has as its system Con-NCI-H82 cell. In words: CellTiter-Glo cell viability, Con-NCI-H82 cell (empty-vector control). It counts as cell-based, human. As to conditions: Homo sapiens, NCI-H82, NCI-H82 transfected with empty virus vector (control), intracellular ATP, read-out: inhibitory effect on Con-NCI-H82 (IC50).
In the next test the test system is NB-1. As to the kind of experiment: CellTiter-Glo cell viability, brain tumor cell line NB-1. It counts as cell-based. As to conditions: Homo sapiens, NB1, 72 h; brain neuroblastoma cell; 3 days of culture; read-out: inhibitory effect on NB-1 (IC50). The method, boiled down:
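NB-1 brain tumour cells cultured in their relevant medium were exposed to gradient-diluted compounds for 3 days. Viability was read as intracellular ATP content by CellTiter-Glo luminescence, and IC50 was taken as the 50% inhibiting concentration.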

A further test has as its system 786-O. In words: CellTiter-Glo cell viability, tumor cell line 786-O. It counts as cell-based. As to conditions: Homo sapiens, 786-0, 72 h; clear cell renal cell adenocarcinoma cell; 3 days of culture; read-out: inhibitory effect on 786-O (IC50). An outline of the steps: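 IC50 comes from an ATP-based CellTiter-Glo luminescent viability read-out. Before the read, serial compound dilutions were applied to 786-O cells for 3 days in 10% FBS RPMI.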

The next test concerns SW48. As to the kind of experiment: CellTiter-Glo cell viability, tumor cell line SW48. It counts as cell-based. As to conditions: SW48, 72 h; human colon adenocarcinoma cell; 3 days of culture; read-out: inhibitory effect on SW48 (IC50). An outline of the steps: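 SW48 cells grown in Leibovitz's L-15 with 10% FBS were exposed to serially diluted compound for 3 days. Viability read as intracellular ATP by CellTiter-Glo luminescence, yielding IC50.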

The next test has as its system SF-126. As to the kind of experiment: CellTiter-Glo cell viability, tumor cell line SF-126. The test is classed as cell-based. As to conditions: SF-126, 72 h, read-out: inhibitory effect on SF-126 (IC50); human glioblastoma multiforme cell; 3 days of culture. An outline of the steps:
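SF-126 cells grown in EMEM with 10% FBS were exposed to serially diluted compound for 3 days. Viability was read as intracellular ATP by CellTiter-Glo luminescence, and IC50 taken as the 50% inhibiting concentration.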

Another test relates to Kelly. In words: CellTiter-Glo cell viability, brain tumor cell line Kelly. The test is classed as cell-based. As to conditions: Homo sapiens, 72 h, brain neuroblastoma cell, 3 days of culture, read-out: inhibitory effect on Kelly (IC50). The method, boiled down: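 Kelly cells were grown in RPMI1640 with 10% fetal bovine serum and 2 mM glutamine, then exposed to gradient-diluted compounds for 3 days. Viability was read as intracellular ATP by CellTiter-Glo luminescence, and IC50 was derived from it.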

The subject of a further test is MDA-MB-453. As to the kind of experiment: CellTiter-Glo cell viability, tumor cell line MDA-MB-453. The test is classed as cell-based. As to conditions: Homo sapiens, MDA-MB-453, 72 h; breast cancer cell; 3 days of culture; read-out: inhibitory effect on MDA-MB-453 (IC50). The method, boiled down: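 MDA-MB-453 cells cultured 3 days with serially diluted compounds; viability measured as intracellular ATP by CellTiter-Glo luminescence, and IC50 derived.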

The test system of the next test is D341 Med. In words: CellTiter-Glo cell viability, brain tumor cell line D341 Med. The test is classed as cell-based. As to conditions: Homo sapiens, 72 h, cerebellar medulloblastoma cell, 3 days of culture, read-out: inhibitory effect on D341 Med (IC50). The method, boiled down:
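D341 Med cells, grown in EMEM with 20% FBS, were exposed to gradient-diluted compounds for 3 days. Viability was measured as intracellular ATP by CellTiter-Glo luminescence, and IC50 was derived from the dose response.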

The test system of another test is sh-DNMT1 NCI-H82 cell. In words: CellTiter-Glo cell viability, sh-DNMT1 NCI-H82 cell (DNMT1 knocked down). The test is classed as cell-based, human. As to conditions: Homo sapiens, NCI-H82, NCI-H82 with DNMT1 knocked down by shRNA, intracellular ATP, read-out: inhibitory effect on sh-DNMT1 NCI-H82 (IC50).

In general, IC50 refers to the concentration needed to halve the response being measured. In the case of `COc1ccc2c(c1OCCCCl)CN1CCc3cc4c(cc3C1=C2)OCO4` [AB35543], the half-inhibitory concentration (IC50) turned out to be 10200 nM in the test with CFPAC-1; 1060 nM with G-401; 13400 nM in the test on GB-1; 2680 nM in the test with ov-NNMT NCI-H82 cell; 550 nM in the test with NCI-H82; 550 nM in the test with Con-NCI-H82 cell. The half-inhibitory concentration (IC50) was found to be 2360 nM in the test on NB-1; 9880 nM in the test on 786-O; 1560 nM with SW48; 15900 nM with SF-126; 1540 nM in the test with Kelly; 880 nM with MDA-MB-453. The IC50 with D341 Med was 1680 nM; with sh-DNMT1 NCI-H82 cell, 3120 nM.

For the molecule `COc1ccc2c(c1N1CCC(C)CC1)C(C1CCCC1)N1CCc3cc4c(cc3C1=C2)OCO4` (stereo not shown) [AB35510], the concentration for half-maximal inhibition (IC50) in the test on CFPAC-1 came out at 13100 nM; in the test with G-401, 1210 nM; in the test on GB-1, 14600 nM; in the test on ov-NNMT NCI-H82 cell, 1560 nM; in the test with NCI-H82, 310 nM; in the test with Con-NCI-H82 cell it was 310 nM. Besides, the half-inhibitory concentration (IC50) with NB-1 is 1680 nM; with 786-O, 24700 nM; with SW48 it was 1990 nM; with SF-126 it was 24300 nM; with Kelly, 2020 nM; in the test on MDA-MB-453, 560 nM. In addition, the figures for the IC50 in the test with D341 Med and in the test with sh-DNMT1 NCI-H82 cell were 760 nM and 1860 nM, respectively.

The values are drawn from US12502386B2, “Nitrogen-containing heterocyclic compound and use thereof” (SHANGHAI SHIJIANG BIOTECHNOLOGY CO., LTD, priority 2022, dated 2025).
